Test results taken from US12642875B2, “Liposomal nanocarrier delivery system for targeting active CD44 molecule, preparation method therefor, and uses thereof” (Beijing Inno Medicine Co., Ltd., priority 2018, dated 2026).

Experiments:
[1] = system: ApoE−/− mouse model of arterial vulnerable plaque; test: In vivo therapeutic effect of atorvastatin delivery systems on arterial vulnerable plaques (Experimental Example 4, carotid MRI); set-up: species or system mice; settings: once every other day, 5 treatments, control progressed by 34.87%
Procedure: (§1) Except for the control group of vulnerable plaque model, the treatment group was treated once every other day for a total of 5 treatments. For animals in each group, carotid MRI scans were performed before and after treatment to detect plaque and lumen area, and the percentage of plaque progression was calculated. Percentage of plaque progression=(plaque area after treatment−plaque area before treatment)/lumen area.

[2] = system: ApoE−/− mouse model of arterial vulnerable plaque; test: In vivo radioisotopic tracing of vulnerable plaque (Experimental Example 8); set-up: species or system mice; settings: tail vein, tracer 2 mSv/kg, imaging 2 hours after administration
Procedure: • (1) A normal saline solution of free rosuvastatin was prepared, and the liposome nano delivery systems loaded with radioisotopic tracer and therapeutic agent was prepared by the method described in the above Example 11. • (2) Establishment of ApoE−/− mouse model of arterial vulnerable plaque according to Experimental Example 4. • (3) Trace of vulnerable plaque in experimental animals:
The experimental animals were randomly divided into the following groups, 6 mice in each group: • Free F-FDG group: the dosage of F-FDG was 2 mSv/kg body weight; • LP1-(F-FDG)-OPN group: the dosage of F-FDG was 2 mSv/kg body weight; • LP1-(99mTc)-OPN group: the dosage of 99mTc was 2 mSv/kg body weight; • LP1-(I-131)-OPN group: the dosage of 1-131 was 2 mSv/kg body weight.
Animals in each experimental group were injected with the corresponding tracer through the tail vein, and radioisotopic imaging was performed before administration and 2 hours after administration to observe the identification of atherosclerotic vulnerable plaque in each group.

[3] = oral, clinical practice; cited from earlier work
[4] = system: ApoE−/− mouse model of arterial vulnerable plaque; test: In vivo therapeutic effect of rosuvastatin delivery systems on arterial vulnerable plaques (Experimental Example 3, carotid MRI); set-up: species or system mice; settings: once every other day, 5 treatments, control progressed by 36.23%
Procedure: • (1) A normal saline solution of free rosuvastatin was prepared, and the liposome nanocarrier delivery systems loaded with therapeutic agent were prepared by the method described in the above Example 1-3. • (2) Establishment of ApoE−/− mouse model of arterial vulnerable plaque:
SPF-grade ApoE−/− mice (42 mice, 5-6 weeks old, weight 20±1 g) were taken as experimental animals. The mice were fed with an adaptive high-fat diet (fat 10% (w/w), cholesterol 2% (w/w), sodium cholate 0.5% (w/w), and the rest being normal feed for mice) for 4 weeks, and then anaesthetized via intraperitoneal injection of 1% sodium pentobarbital (prepared by adding […] of sodium pentobarbital to 100 ml of normal saline) at a dose of 40 mg/kg. Then, the mice were fixed on the surgical plate in the supine position, disinfected around the neck with 75% (v/v) alcohol, the neck skin was cut longitudinally, and the anterior cervical gland was bluntly separated, and the beating left common carotid artery can be observed on the left side of the trachea. […]
Except for the control group of vulnerable plaque model, the treatment group was treated once every other day for a total of 5 treatments. For animals in each group, carotid MRI scans were performed before and after treatment to detect plaque and lumen area, and the percentage of plaque progression was calculated. […]

[5] = system: ApoE−/− mouse model of arterial vulnerable plaque; test: In vivo therapeutic effect of LP2-(AuNP/R)-OPN on arterial vulnerable plaques (Experimental Example 5, carotid MRI); set-up: species or system mice; settings: once every other day, 5 treatments, control progressed by 31.23%
Procedure: • (1) A normal saline solution of free rosuvastatin was prepared, and the liposome nano delivery systems loaded with CT tracer and therapeutic agent was prepared by the method described in the above Example 7. • (2) Establishment of ApoE−/− mouse model of arterial vulnerable plaque according to Experimental Example 4. • (3) Trace of vulnerable plaque in experimental animals:
as §1

[6] = target: T1, CD44 on the surface of macrophages inside arterial vulnerable plaques (Mus musculus, UniProt P15379); test: Binding force integration of amino fluorescein labelled ligand/antibody, flow cytometry MFI, macrophages; set-up: species or system mice; settings: macrophages outside the plaque set to 1; labelled ligand/antibody 10 mg/ml, 30 minutes, 37° C.
T1 construct: from tissue; host or cells: macrophages from inside arterial vulnerable plaques of model mice
T1 sequence (P15379 23-778): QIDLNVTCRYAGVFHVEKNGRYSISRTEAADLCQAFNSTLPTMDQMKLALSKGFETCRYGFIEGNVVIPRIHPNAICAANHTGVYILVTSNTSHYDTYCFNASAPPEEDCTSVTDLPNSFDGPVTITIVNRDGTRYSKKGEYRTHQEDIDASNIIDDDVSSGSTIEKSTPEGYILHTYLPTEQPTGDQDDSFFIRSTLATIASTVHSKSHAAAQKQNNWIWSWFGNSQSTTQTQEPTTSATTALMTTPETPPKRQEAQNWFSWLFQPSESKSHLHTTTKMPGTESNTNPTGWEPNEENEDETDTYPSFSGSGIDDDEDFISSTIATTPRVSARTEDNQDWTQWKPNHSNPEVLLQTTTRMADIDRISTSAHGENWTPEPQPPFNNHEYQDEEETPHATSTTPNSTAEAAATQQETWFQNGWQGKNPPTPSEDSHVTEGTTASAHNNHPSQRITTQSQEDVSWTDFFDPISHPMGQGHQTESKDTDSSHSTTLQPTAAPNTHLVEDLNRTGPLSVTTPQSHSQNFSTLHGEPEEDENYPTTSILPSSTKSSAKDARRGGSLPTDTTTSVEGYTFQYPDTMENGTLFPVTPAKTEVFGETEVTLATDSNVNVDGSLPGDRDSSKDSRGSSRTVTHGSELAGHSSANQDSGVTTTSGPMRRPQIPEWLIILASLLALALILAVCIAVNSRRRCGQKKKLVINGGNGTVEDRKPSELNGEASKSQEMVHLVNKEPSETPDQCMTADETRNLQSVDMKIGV
Procedure: Intraperitoneal macrophages and macrophages inside arterial vulnerable plaques of model mice were taken, and the ligand/antibody labeled with amino fluorescein at a concentration of 10 mg/ml was added, the sample was cultured in DMEM (containing calf serum with a volume fraction of 10%, 100 U/ml penicillin, 100 U/ml streptomycin) at 37° C., in 5% CO2 incubator.

[7] = target: T2, CD44 on the surface of endothelial cells at arterial vulnerable plaques (Mus musculus, UniProt P15379); test: Binding force integration of amino fluorescein labelled ligand/antibody, flow cytometry MFI, endothelial cells; set-up: species or system mice; settings: normal cells set to 1; labelled ligand/antibody 10 mg/ml, 30 minutes, 37° C.
T2 construct: from tissue; host or cells: endothelial cells from arterial vulnerable plaques of model mice
T2 sequence (P15379 23-778): T1 sequence (P15379 23-778)
Procedure: Endothelial cells at normal arterial vessel walls and endothelial cells at arterial vulnerable plaques of model mice were taken, and the ligand/antibody labeled with amino fluorescein at a concentration of 10 mg/ml was added, the sample was cultured in Dulberic modified Eagle's medium (DMEM) (containing calf serum with a volume fraction of 10%, 100 U/ml penicillin, 100 U/ml streptomycin) at 37° C., in 5% CO2 incubator. After 30 minutes, the mean fluorescence intensity (MFI) was determined by flow cytometry (CytoFLEX, Beckman Coulter, U.S.A.), and the binding force integration of FL-ligand/antibody on the surface of both cells was calculated (the binding force of CD44 of endothelial cells of normal arterial vessel walls to ligand/antibody is set to 1).

[8] = intragastric, 10 mg rosuvastatin per kg

CC(C)c1c(C(=O)Nc2ccccc2)c(-c2ccccc2)c(-c2ccc(F)cc2)n1CC[C@@H](O)C[C@@H](O)CC(=O)O [atorvastatin]
percentage of plaque progression ([1]; intragastric, 20 mg atorvastatin per kg): 33.21% | percentage of plaque progression ([1]; intravenous, 1.2 mg atorvastatin per kg): 32.98%

OC[C@H]1OC(O)[C@H]([18F])[C@@H](O)[C@@H]1O (stereo partly drawn) [free F-FDG, fluorine 18 (18F)-labeled fludeoxyglucose]
in vivo tracing effect on arterial vulnerable plaques (radioisotopic imaging) [2]: doesn't show any tracing effect

CC(C)c1nc(N(C)S(C)(=O)=O)nc(-c2ccc(F)cc2)c1/C=C/[C@@H](O)C[C@@H](O)CC(=O)O [rosuvastatin]
bioavailability when administered orally [3]: about 20% | percentage of plaque progression [4, 8]: 33.9% | percentage of plaque progression ([4]; intravenous, 0.66 mg rosuvastatin per kg): 32.46% | percentage of plaque progression [5, 8]: 30.9% | percentage of plaque progression ([5]; intravenous, 0.67 mg rosuvastatin per kg): 25.34%

collagen
binding force integration of CD44 on the surface of macrophages at vulnerable plaques, relative to macrophages outside the plaque [6]: 38 times | binding force integration of CD44 on the surface of endothelial cells at vulnerable plaques, relative to endothelial cells of normal arterial vessel walls [7]: 21 times

fibronectin
binding force integration of CD44 on the surface of macrophages at vulnerable plaques, relative to macrophages outside the plaque [6]: 35 times | binding force integration of CD44 on the surface of endothelial cells at vulnerable plaques, relative to endothelial cells of normal arterial vessel walls [7]: 18 times

hyaluronic acid [HA]
binding force integration of CD44 on the surface of macrophages at vulnerable plaques, relative to macrophages outside the plaque [6]: approximately 40 times | binding force integration of CD44 on the surface of endothelial cells at vulnerable plaques, relative to endothelial cells of normal arterial vessel walls [7]: approximately 24 times

laminin
binding force integration of CD44 on the surface of macrophages at vulnerable plaques, relative to macrophages outside the plaque [6]: 37 times | binding force integration of CD44 on the surface of endothelial cells at vulnerable plaques, relative to endothelial cells of normal arterial vessel walls [7]: 16 times

osteopontin: natural ligand for CD44
binding force integration of CD44 on the surface of macrophages at vulnerable plaques, relative to macrophages outside the plaque [6]: 33 times | binding force integration of CD44 on the surface of endothelial cells at vulnerable plaques, relative to endothelial cells of normal arterial vessel walls [7]: 17 times
